Measurements as given in US20260356817A1, “AMINOPYRIMIDINE AND AMINOTRIAZINE DERIVATIVES AS MYC PROTEIN MODULATORS” (Sanford Burnham Prebys Medical Discovery Institute, priority 2022, published 2026).
Where two headings read alike, the source gives them in different places.

Key:
Myc [1] = test: Myc levels in intracranial medulloblastoma PDX tumors in mice after oral administration (Western blot); format: in vivo, NSG mice transplanted with medulloblastoma PDX cells
Description: NSG mice transplanted with medulloblastoma PDX cells were treated by oral administration with either vehicle (10% DMSO, 10% Tween 80) or Compound 171 (100 mg/kg). After 5.5 hours, animals were sacrificed, and tumors were harvested, dissociated, lysed and subjected to Western blotting with antibodies specific for Myc or GAPDH as control.

[2] = system: medulloblastoma PDX cells; test: CellTiter Glo viability of medulloblastoma PDX cells; format: cell-based, human (patient-derived); conditions: 0.18 μM
Description: (§1) Medulloblastoma PDX cells were harvested from the brains of tumor-bearing mice, cultured overnight, and then treated with Compound 171 for various amounts of time. Cells cultured for time points of 1 hour, 2 hours, and 4 hours were lysed and subjected to Western blotting with antibodies specific for Myc or GAPDH as control, as shown in FIG. 4A. Cells cultured for longer time points of 48 hours and 96 hours were assayed for viability using the CellTiter Glo assay, as shown in FIG. 4B and FIG. 4C.

[3] = system: PDX511 medulloblastoma cells; test: Cell viability of PDX511 medulloblastoma cells at 4 hours; format: cell-based, human (patient-derived)
[4] = system: retinoblastoma (Rb) protein; test: Rb protein expression in PDX511 medulloblastoma cells (immunofluorescence); format: cell-based, human (patient-derived)
[5] = Plasma and brain concentrations in NSG mice after oral administration (LCMS); format: in vivo, mice (non-tumor-bearing NSG); conditions: 100 mg/kg oral
Description: Non-tumor-bearing NOD-SCID-IL2Rgamma knockout (NSG) mice were treated with Compound 171 at 100 mg/kg via oral administration. Blood was collected retro-orbitally or by cardiac puncture for measuring compound concentrations. For measurements of compound concentration in the brain, animals were sacrificed, and brain tissue was harvested and homogenized. Compound concentration was determined by liquid chromatography-mass spectrometry (LCMS).

Myc [6] = test: Western blot of Myc in H-82 cells (small cell lung cancer); format: cell-based; conditions: 0.18 μM and 1.0 μM, 4 hours, Western blot (FIG. 5D)
Description: (§2) Cell lines derived from acute monocytic leukemia, acute promyelocytic leukemia, pancreatic adenocarcinoma and small cell lung cancer were treated with vehicle (DMSO) or the indicated concentrations of Compound 171 for 4 hours, and then lysed and subjected to Western blotting using antibodies specific for Myc or GAPDH as control.

Myc [7] = test: Myc inhibition assay: Myc expression per cell by anti-Myc immunofluorescence, high-content imaging; format: cell-based, human (patient-derived medulloblastoma xenograft cells)
How it was run: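 IC50 comes from high-content imaging of per-cell Myc immunostaining (DAPI-labelled nuclei) after 4 h compound exposure. Cells were freshly dissociated medulloblastoma PDX tumours, never passaged in vitro, grown in NSG mouse cerebellum, plated serum-free and recovered overnight before treatment.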

Myc [8] = test: Western blot of Myc in HL-60 cells (acute promyelocytic leukemia); format: cell-based; conditions: 0.18 μM and 1.0 μM, 4 hours, Western blot (FIG. 5B)
Description: as §2

Myc [9] = test: Western blot of Myc in cultured medulloblastoma PDX cells; format: cell-based, human (patient-derived); conditions: 0.18 μM, Western blot (FIG. 4A)
Description: as §1

Myc [10] = test: Western blot of Myc in BxPC-3 cells (pancreatic adenocarcinoma); format: cell-based; conditions: 0.18 μM and 1.0 μM, 4 hours, Western blot (FIG. 5C)
Description: as §2

Myc [11] = test: Western blot of Myc in THP-1 cells (acute monocytic leukemia); format: cell-based; conditions: 0.18 μM and 1.0 μM, 4 hours, Western blot (FIG. 5A)
Description: as §2

Structure (SMILES) | reduction of Myc levels in intracranial tumors (Myc [1]; 100 mg/kg oral (FIG. 7)) | mice with undetectable Myc expression in intracranial tumors (Myc [1]; 100 mg/kg oral, after more than 5 hours (5.5 hours), Western blot) | reduction in cell viability by 48 hours ([2]; 48 hours, CellTiter Glo (FIG. 4B)) | reduction in cell viability by 96 hours ([2]; 96 hours, CellTiter Glo (FIG. 4C)) | effect on cell viability [3] | effect on expression of the retinoblastoma (Rb) protein [4] | blood-brain-barrier crossing and retention in the brain [5] | time for which brain concentration remained above the IC90 level ([5]; brain) | time for which plasma concentration remained above the IC90 level ([5]; plasma) | inhibition of Myc, H-82 (Myc [6]) | Myc expression inhibition (in words) (Myc [7]; PDX511 medulloblastoma cells (FIG. 3A)) | IC50 (Myc [7]; Table 1, medulloblastoma PDX cells, 4 h, read-out: IC50 (Myc inhibition)) | IC50 (Myc [7]; Table 2, medulloblastoma PDX cells, 4 h, read-out: MYC Inhibition IC50) | inhibition of Myc, HL-60 (Myc [8]) | inhibition of Myc expression at 2 and 4 hours (Myc [9]; 2 and 4 hours vs 1 hour) | time of first inhibition of Myc expression (Myc [9]) | inhibition of Myc, BxPC-3 (Myc [10]) | inhibition of Myc, THP-1 (Myc [11]) | IC50 (Myc [7]; read-out: Myc expression inhibition IC50, PDX511 medulloblastoma cells, 4 h (FIG. 2A))
FC(F)(F)c1cccc(Nc2nccc(-c3ccc4nc[nH]c4c3)n2)c1 [Compound 171, 4-(1H-Benzo[d]imidazol-6-yl)-N-(3-(trifluoromethyl)phenyl)pyrimidin-2-amine 2HCl] | reduction of Myc levels | 3 out of 6 | 80% | 100% | no effect | no effect | ability to cross the blood-brain-barrier with good retention in the brain | more than 6 hours | more than 6 hours | substantial inhibition of Myc | Myc expression inhibition | < 0.2 µM | < 0.2 µM | substantial inhibition of Myc | greater inhibition | ≤ 1 h | substantial inhibition of Myc | substantial inhibition of Myc | 
COc1ccc(Nc2nccc(-c3ccncc3)n2)cc1 [Compound A] |  |  |  |  | no effect | no effect |  |  |  |  |  |  |  |  |  |  |  |  | 11.7 µM
